Source: US8697731B2, “Derivatives of 2-pyridin-2-yl-pyrazol-3(2H)-one, preparation and therapeutic use thereof” (Sanofi, priority 2008, dated 2014)

Assays:
[1] = system: VEGF; assay: Measurement of the secretion of VEGF by Hep3B hepatocytes (ELISA); assay type: cell-based; details: Homo sapiens, supernatant of Hep3B cells, 18 hours under normoxia, concentration that produces 50% of the maximum response of this same compound
Procedure: (§1) The test is an ELISA test for measuring VEGF and EPO in the supernatant of Hep3B cells treated under hypoxia or with deferoxamine as controls or with the potential HIF activators. The test was adapted to a 96-well plate, allowing greater compound screening capacity.
(§2) 2.3.1 Experiment Plan • 1) Inoculation of the cells on D0 • 2) Adherence for 6 hours under normoxia • 3) Preparation and addition of the products (Biomek 2000 and FX) • 4) Incubation under normoxia for 18 hours • 5) EPO and VEGF assay in the supernatant on D+1
(§3) The cells are subcultured into 100 μl of culture medium (10% FCS) in black, opaque-bottomed 96-well plates (reference Costar 3916) at 30000 cells/well, with Multidrop.
(§4) The test products are prepared at 10^−2M in 100% DMSO and then diluted to […] in medium containing 0.1% FCS (6 μl in 194 μl of MEM). 200 μl of each compound are deposited in column 12 of a 96-well plate. Dilution ranges from 3×10^−4M to 3×10^−8M are prepared with Biomek 2000 (programme: range of 9 points in series). 100 μl of MEM 0.1% FCS and Deferoxamine 5×10^−3M are added as controls to column 3 and, respectively, to wells A,B,C,D & wells E,F,G,H
(§5) The medium of the cells inoculated the day before into 96-well plates is changed for 90 μl of medium containing 0.1% FCS and 10 μl are distributed with FX 96 from the 96-well DL plates to the cell plates.
(§6) The cell plates thus treated are placed for 18 hours in an incubator at 37° C. (ambient O2, 6% CO2).
(§7) The supernatants (80 μl) of the Hep3B cells in the 96-well plates treated with the potential HIF activators are recovered with a multichannel pipette for simultaneous assay of the VEGF and the EPO by ELISA according to the supplier's instructions (Kit EPO Mesoscale (ref K15122B-2)).
(§8) The activating activity of a compound with respect to HIF is given by the concentration that produces 50% of the maximum response of this same compound in Table IV.

[2] = system: HIF1-alpha; assay: Measurement of the stabilization of HIF1-alpha in HEKEA cells (beta-galactosidase complementation); assay type: cell-based, human; details: HEKEA_HIF1-alphaPLBL cells, 6 hours under normoxia, luminescence; molar concentration that produces 50% of the maximum response of this same compound
Excerpt: Furthermore, a subject of the invention is also a uniform test for the direct measurement by beta-galactosidase complementation of the amount of HIF1-alpha protein in the nucleus of cells, preferably HEK cells, after treating the said cells with one or more test compounds, which consists in: • (a) inoculating, preferably in 384-well plates, the said cells in a suitable culture medium, preferably 1% foetal calf serum (abbreviated as FCS); • (b) adding the test compound(s) at a suitable concentration in a suitable solvent to the cells previously inoculated in the said culture medium; preferably the test compounds are diluted in 0.1% FCS; • (c) incubating the said cells thus prepared in an indicator at about 37° C., advantageously for about 6 hours; • (d) lysing the cells with a lysis buffer containing a chemiluminescent substrate for beta-galactosidase; • (e) incubating in the absence of light, before reading and measuring the luminescence, which is a function of the beta-galactosidase activity.
The test is a cell test based on the principle of enzyme complementation, the enzyme used herein being beta-galactosidase. HEKEA cells are HEK cells stably expressing, and restricted in their nucleus, mutant beta-galactosidase (omega fragment, also known as EA) (line sold by DiscoverX). This construct makes it possible to obtain beta-galactosidase activity only when the protein comprising the Prolabel complementation fragment has migrated into the nucleus.
The protein of interest comprising the Prolabel fragment is in this case an HIF1-alpha or HIF1-alpha mutated at the two prolines 402 and 564 replaced with alanines, is C-terminal fused via molecular biology (DiscoverX vector sold by Clontech) with the small complementation peptide fragment (Prolabel or ED, about 4 kDa). The vector coding for the chimeric protein HIF1-alpha_Prolabel is then transfected into HEKEA cells to obtain stable clones (HEKEA_HIF1-alphaPLBL).
The amount of C-terminal Prolabel-“labelled” HIF1-alpha protein obtained after treating the cells to hypoxia or compounds that are potentially HIF activators is measured by adding to the cells a lysis buffer containing a chemiluminescent substrate for beta-galactosidase.
The measurement of the beta-galactosidase activity will be proportional to the amount of Prolabel and thus of HIF1-alpha that has migrated into the nucleus of the cells.
1.3.1 Experiment Plan • 1) Inoculation of the cells on D0 • 2) Adherence for 24 hours under normoxia • 3) Preparation and addition of the products (Biomek 2000 and FX) on D+1 • 4) Incubation under normoxia for 6 hours • 5) Reading of the plates (by luminescence)
The cells are inoculated with Multidrop in white, opaque-bottomed 384-well plates (Greiner ref 3704), in 30 μl of culture medium (1% FCS) a 10000 cells/well (cell plate).
The test products are prepared at 3×10^−2 M in 100% DMSO and then diluted to 3×10^−4 M in medium containing 0.1% FCS (10 μl in 990 μl of MEM). They are then deposited by hand into column 12 of a round-bottomed 96-well plate (200 μl of each compound) known as the dilution plate (dl). The complete DL plate of 3×10^−4 M to 10^−9 M is then prepared with Biomek 2000 (programme: range of 10 points in series). For the references and controls, 100 μl of DMEM containing 0.1% FCS are added to column 1, 100 μl of Deferoxamine 10^−3M to column 2, wells A B C D and 100 μl of Deferoxamine 5×10^−3 M to column 2, wells E F G H.
3.3 μL are taken from the DL plate by pipetting with a Biomek FX 96 and placed in horizontal duplicate (columns 1 to 24) in each 384-well cell plate (HEKEA_HIF1-alphaPLBL cell plate).
The cells are then placed for 6 hours in an incubator at 37° C. (ambient O2, 6% CO2).
The kit used is the Prolabel chemiluminescent kit (Ref 93-0001 DiscoverX). […]

[3] = system: EPO; assay: Measurement of the secretion of EPO by Hep3B hepatocytes (ELISA); assay type: cell-based; details: Homo sapiens, supernatant of Hep3B cells, 18 hours under normoxia, concentration that produces 50% of the maximum response of this same compound
Procedure: as §1, §2, §3, §4, §5, §6, §7, §8

melting point [°C]	EC50 [2] [µM]	SMILES	EC50 [1] [µM]	EC50 [3] [µM]
152	8.8	O=c1c2c([nH]n1-c1ccccn1)CSC2 [Compound 1, 2-pyridin-2-yl-1,2,4,6-tetrahydro-3H-thieno[3,4-c]pyrazol-3-one]	3	2.9
226	8.7	CN(c1ccccn1)S(=O)(=O)c1ccc(-n2[nH]c3c(c2=O)CSC3)nc1 [Compound 21, N-methyl-6-(3-oxo-4,6-dihydro-1H-thieno[3,4-c]pyrazol-2(3H)-yl)-N-pyridin-2-ylpyridine-3-sulfonamide]	2.4	1.4
176	5.2	CCN(c1ccccc1)S(=O)(=O)c1ccc(-n2[nH]c3c(c2=O)CSCC3)nc1 [Compound 13, N-ethyl-6-(3-oxo-1,4,6,7-tetrahydrothiopyrano[4,3-c]pyrazol-2(3H)-yl)-N-phenylpyridine-3-sulfonamide]	1	0.9
